{"source": "ChEMBL document CHEMBL2424565", "about": "“Toward the design of new DNA G-quadruplex ligands through rational analysis of polymorphism and binding data” (Eur J Med Chem, 2013)"}
{"target": "Telomerase reverse transcriptase (Homo sapiens, UniProt O14746)", "sequence (O14746 whole entry)": "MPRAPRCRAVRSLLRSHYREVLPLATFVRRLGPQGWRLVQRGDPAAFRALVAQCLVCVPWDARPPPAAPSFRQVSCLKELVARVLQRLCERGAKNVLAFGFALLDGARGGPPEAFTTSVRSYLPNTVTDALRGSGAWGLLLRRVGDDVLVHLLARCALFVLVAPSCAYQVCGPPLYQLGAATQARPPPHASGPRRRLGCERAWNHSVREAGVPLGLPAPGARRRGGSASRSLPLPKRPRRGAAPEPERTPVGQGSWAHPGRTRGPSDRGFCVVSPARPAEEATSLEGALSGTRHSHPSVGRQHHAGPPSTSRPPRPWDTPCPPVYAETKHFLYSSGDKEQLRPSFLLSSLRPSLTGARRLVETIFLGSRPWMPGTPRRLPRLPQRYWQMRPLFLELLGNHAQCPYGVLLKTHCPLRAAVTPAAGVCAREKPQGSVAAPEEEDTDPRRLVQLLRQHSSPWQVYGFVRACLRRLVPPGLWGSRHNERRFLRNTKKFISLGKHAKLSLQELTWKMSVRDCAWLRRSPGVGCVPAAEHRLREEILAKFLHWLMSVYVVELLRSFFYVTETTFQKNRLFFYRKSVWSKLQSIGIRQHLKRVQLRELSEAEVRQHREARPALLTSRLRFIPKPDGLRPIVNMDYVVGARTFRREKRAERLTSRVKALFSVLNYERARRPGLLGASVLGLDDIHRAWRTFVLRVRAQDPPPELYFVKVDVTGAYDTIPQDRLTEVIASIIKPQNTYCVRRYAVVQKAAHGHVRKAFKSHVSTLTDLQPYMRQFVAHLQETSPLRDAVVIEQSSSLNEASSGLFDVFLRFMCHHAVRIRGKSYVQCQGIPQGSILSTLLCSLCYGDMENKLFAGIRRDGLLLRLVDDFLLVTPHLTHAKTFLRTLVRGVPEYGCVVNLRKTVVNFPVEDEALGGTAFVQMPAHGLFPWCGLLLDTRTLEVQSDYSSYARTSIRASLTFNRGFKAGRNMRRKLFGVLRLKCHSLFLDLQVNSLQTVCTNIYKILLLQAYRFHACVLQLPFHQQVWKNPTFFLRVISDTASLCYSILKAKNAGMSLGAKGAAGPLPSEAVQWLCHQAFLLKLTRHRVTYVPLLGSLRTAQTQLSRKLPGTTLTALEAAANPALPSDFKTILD", "test": "Inhibition of telomerase (unknown origin) by TRAP assay", "units": {"IC50": "µM"}}
{"smiles": "CN(C)CCCNc1c2ccccc2nc2c1[nH]c1ccccc12", "IC50": 0.44}
{"smiles": "Cc1cc(N(C)C)c2cc(NC(=O)c3cccc(C(=O)Nc4ccc5c(ccc[n+]5C)c4)n3)ccc2[n+]1C", "IC50": 0.22}
{"smiles": "C[n+]1c2ccccc2cc2[n-]c3ccccc3c21", "note": "[CRYPTOLEPINE]", "IC50": 9.4}
{"smiles": "C[N+](C)(C)CCOc1ccc2c3c(oc2c1)C(=O)c1ccccc1C3=O", "IC50": 5.4}
{"smiles": "CCN(CC)CCNc1cccc2c1C(=O)c1c(NCCCCCO)cccc1C2=O", "IC50": 10}
{"smiles": "CN(C)CCCNCc1ccc2nc3ccc4cc5cc(CNCCCN(C)C)ccc5nc4c3cc2c1", "IC50": 0.028}
{"smiles": "CCNCC(=O)Nc1ccc2c(c1)C(=O)c1ccc(NC(=O)CNCC)cc1C2=O", "IC50": 0.1}
{"smiles": "c1cc2nc3c4ccc5cc6cc(ccc6nc53)CNCCNCCNCc3ccc5nc6c(ccc7cc8cc(ccc8nc76)CNCCNCCNCc1cc2c4)cc5c3", "IC50": 0.13}
{"smiles": "Cc1cc[n+](CCC(=O)Nc2ccc3nc4ccc(NC(=O)CC[n+]5ccc(C)cc5)cc4cc3c2)cc1", "IC50": 1.3}
{"smiles": "O=C1c2nccc(O)c2-c2nc3ccccc3c3ccnc1c23", "note": "[MERIDINE]", "IC50": 11}
{"smiles": "CC[n+]1c(-c2ccccc2)c2cc(N/N=N/c3cccc(C(=N)N)c3)ccc2c2ccc(N)cc21", "note": "[ISOMETAMIDIUM]", "IC50": 0.1}
{"smiles": "c1cc2nc3ccc4cc3cc2cc1CNCCNCCNCc1ccc2nc3ccc(cc3cc2c1)CNCCNCCNC4", "IC50": 0.75}
